Results from ChEMBL document CHEMBL1134185, “Synthesis and anticonvulsant activity of novel and potent 1-aryl-7,8-methylenedioxy-1,2,3,5-tetrahydro-4H-2,3-benzodiazepin-4-ones” (2001).

Tests used:
[1] = Anticonvulsant activity against audiogenic tonic seizures in DBA/2 mice, administered ip 30 minutes before auditory stimulation; format: functional; conditions: Mus musculus
Mus musculus [2] = species: Mus musculus; experiment: Ratio of TD50 to ED50, expressed as protective index; format: functional
[3] = Anticonvulsant activity against audiogenic Clonic seizures in DBA/2 mice, administered ip 30 minutes before auditory stimulation.; format: functional; conditions: Mus musculus
Mus musculus [4] = species: Mus musculus; experiment: Dose required to produce locomotor deficit assessed by rotarod test in DBA/2 mice.; format: functional
Mus musculus [5] = experiment: Effective dose required for anticonvulsant activity against AMPA-induced clonic seizure in Swiss mice 45 minutes after ip administration of the compound; format: functional; conditions: 0.75 h
Mus musculus [6] = experiment: Effective dose required for anticonvulsant activity against AMPA-induced tonic seizure in Swiss mice 45 minutes after ip administration of the compound; format: functional; conditions: 0.75 h
Mus musculus [7] = experiment: Effective dose required for anticonvulsant activity by ip administration against clonic phase of audiogenic seizures in DBA/2 mice after pretreatment with aniracetam+ 2,3-benzodiazepine (p<0.01); format: functional
Mus musculus [8] = experiment: Effective dose required for anticonvulsant activity by ip administration against tonic phase of audiogenic seizures in DBA/2 mice after pretreatment with aniracetam+ 2,3-benzodiazepine (p<0.01); format: functional
Mus musculus [9] = experiment: Effective dose required for anticonvulsant activity against Clonic phase of seizure in DBA/2 mice 120 minutes after ip administration of the compound; format: functional; conditions: 2 h
Mus musculus [10] = experiment: Effective dose required for anticonvulsant activity against Clonic phase of seizure in DBA/2 mice 15 minutes after ip administration of the compound; format: functional; conditions: 0.25 h
Mus musculus [11] = experiment: Effective dose required for anticonvulsant activity against Clonic phase of seizure in DBA/2 mice 30 minutes after ip administration of the compound; format: functional; conditions: 0.5 h
Mus musculus [12] = experiment: Effective dose required for anticonvulsant activity against Clonic phase of seizure in DBA/2 mice 45 minutes after ip administration of the compound; format: functional; conditions: 0.75 h
Mus musculus [13] = experiment: Effective dose required for anticonvulsant activity against Clonic phase of seizure in DBA/2 mice 60 minutes after ip administration of the compound; format: functional; conditions: 1 h
Mus musculus [14] = experiment: Effective dose required for anticonvulsant activity against Clonic phase of seizure in DBA/2 mice 90 minutes after ip administration of the compound; format: functional; conditions: 1.5 h
Mus musculus [15] = experiment: Effective dose required for anticonvulsant activity against KA-induced seizure was evaluated in Swiss mice on sc administration at CD97 (32 mg/kg) 15 minutes after ip injection of compound.; format: functional; conditions: 0.25 h
Mus musculus [16] = experiment: Effective dose required for anticonvulsant activity against MES-induced Tonic seizure in Swiss mice 45 minutes after ip administration of the compound; format: functional; conditions: 0.75 h
Mus musculus [17] = species: Mus musculus; experiment: Percent reduction of KA-evoked current with the patch clamp technique in cerebellar granule neurons grown in primary culture at a dose level of 100 uM was evaluated; format: functional
Mus musculus [18] = experiment: Effective dose required for anticonvulsant activity against AMPA-induced Tonic seizure in DBA/2 mice 45 minutes after ip administration of the compound; conditions: 0.75 h
Mus musculus [19] = experiment: Effective dose required for anticonvulsant activity against PTZ-induced Clonic seizure in Swiss mice 45 minutes after ip administration of the compound; conditions: 0.75 h

| SMILES | ED50 [1] [µmol/kg] | Ratio (Mus musculus [2]) | ED50 [3] [µmol/kg] | TD50 (Mus musculus [4]) [µM/kg] | other results |
| --- | --- | --- | --- | --- | --- |
| CCC(=O)NN1N=C(c2ccc(N)cc2)c2cc3c(cc2CC1=O)OCO3 | 6.47 | 3.6 | 11.4 | 41.2 | – |
| CCC(=O)NN1NC(c2ccc(N)cc2)c2cc3c(cc2CC1=O)OCO3 (centres undefined) | 18.1 | 3.5 | 24.6 | 86.1 | – |
| CCCC(=O)NN1NC(c2ccc(N)cc2)c2cc3c(cc2CC1=O)OCO3 (centres undefined) | 32.6 | 2.8 | 38.7 | 108 | – |
| CC(=O)NN1NC(c2ccc(N)cc2)c2cc3c(cc2CC1=O)OCO3 (centres undefined) | 49.2 | 2.6 | 69.4 | 182 | – |
| CC1=NN=C(c2ccc(N)cc2)c2cc3c(cc2C1)OCO3 [GYKI-52466] | – | 2.1 | – | – | – |
| CCCC(=O)NN1N=C(c2ccc(N)cc2)c2cc3c(cc2CC1=O)OCO3 | 5.09 | 3.4 | 69.4 | 398 | – |
| CC(=O)NN1N=C(c2ccc(N)cc2)c2cc3c(cc2CC1=O)OCO3 | 10.9 | 4.5 | 15.4 | – | ED50 (Mus musculus [4]): 99.1 µmol/kg |
| CCCCC(=O)NN1N=C(c2ccc(N)cc2)c2cc3c(cc2CC1=O)OCO3 | 14.2 | 4.7 | 22.4 | 673 | – |
| O=C1Cc2cc3c(cc2C(c2ccccc2)=NN1)OCO3 | – | 3.7 | – | – | – |
| Nc1ccc(C2=NNC(=O)Cc3cc4c(cc32)OCO4)cc1 | – | – | – | – | ED50 (Mus musculus [5]): 37.6 µmol/kg; ED50 (Mus musculus [6]): 27 µmol/kg |
| Nc1ccc(C2NNC(=O)Cc3cc4c(cc32)OCO4)cc1 (centres undefined) | 6.47 | 3.6 | 11.4 | – | ED50 (Mus musculus [7]): 52.3 µmol/kg; ED50 (Mus musculus [8]): 33.1 µmol/kg; ED50 (Mus musculus [5]): 24.6 µmol/kg; ED50 (Mus musculus [9]): 39.5 µmol/kg; ED50 (Mus musculus [10]): > 50 µmol/kg; ED50 (Mus musculus [11]): 11.4 µmol/kg; ED50 (Mus musculus [12]): 18.7 µmol/kg; ED50 (Mus musculus [13]): 23.4 µmol/kg; ED50 (Mus musculus [14]): 37.1 µmol/kg; ED50 (Mus musculus [15]): 15.9 µmol/kg; ED50 (Mus musculus [16]): 35.7 µmol/kg; Reduction (Mus musculus [17]): 38%; ED50 (Mus musculus [18]): 17.5 µmol/kg; ED50 (Mus musculus [19]): 59.7 µmol/kg |
